Measured values from ChEMBL document CHEMBL6083212, “The synthesis and bioactivities of ROCK2 inhibitors with 1,2-dithiolan-3-yl motif” (RSC Med Chem, 2024).
Activity calls are given as the source filed them. The rule behind the calls is not given here.

Key:
BV-2 [1] = assay: Antiinflammatory activity in LPS-induced mouse BV-2 cells assessed as inhibition of IL-6 production at […] incubated for 24 hrs by ELISA analysis; assay type: functional; set-up: dose or concentration left out as unconfirmed
[2] = Cytotoxicity against mouse BV-2 cells by MTT assay; assay type: toxicity, cell-based; settings: read-out: TC50 (the source's name)
[3] = Antioxidant activity assessed as DPPH radical scavenging activity at 1 mM incubated for 30 mins by absorbance based analysis; assay type: functional
BV-2 [4] = assay: Antiinflammatory activity in LPS-induced mouse BV-2 cells assessed as inhibition of TNF-alpha production at […] incubated for 24 hrs by ELISA analysis; assay type: functional; set-up: dose or concentration left out as unconfirmed
[5] = Tmax in Sprague-Dawley rat at 10 mg/kg, ip measured upto 24 hrs by LC-MS analysis; assay type: ADME, organism-based; settings: in vivo
[6] = Apparent clearance during terminal phase in Sprague-Dawley rat at 10 mg/kg, ip measured upto 24 hrs by LC-MS analysis; assay type: ADME, organism-based; settings: in vivo, read-out: CLz/F (converted)
[7] = Cmax in Sprague-Dawley rat at 10 mg/kg, ip measured upto 24 hrs by LC-MS analysis; assay type: ADME, organism-based; settings: in vivo
[8] = Apparent clearance during terminal phase in Sprague-Dawley rat at 10 mg/kg, iv measured upto 24 hrs by LC-MS analysis; assay type: ADME, organism-based; settings: in vivo
[9] = Oral bioavailability in Sprague-Dawley rat at 10 mg/kg measured upto 24 hrs by LC-MS analysis; assay type: ADME, organism-based; settings: in vivo
[10] = Acute toxicity in C57BL/6 mouse assessed as change in mental state at 50 mg/kg, iv measured for 14 days; assay type: organism-based; settings: in vivo, 336 h, time 14 day
[11] = Acute toxicity in C57BL/6 mouse assessed as change in organ index at 50 mg/kg, iv measured for 14 days; assay type: organism-based; settings: in vivo, 336 h, time 14 day
[12] = Apparent volume of distribution during terminal phase in Sprague-Dawley rat at 10 mg/kg, ip measured upto 24 hrs by LC-MS analysis; assay type: ADME, organism-based; settings: in vivo, read-out: Vz/F
[13] = Apparent volume of distribution during terminal phase in Sprague-Dawley rat at 10 mg/kg, iv measured upto 24 hrs by LC-MS analysis; assay type: ADME, organism-based; settings: in vivo
Mus musculus = assay: Anti-inflammatory activity in CFA-induced acute arthritis C57BL/6 mouse model assessed as effect on foot swelling at 5 to 10 mg/kg, iv measured for 12 hrs; assay type: functional, organism-based; settings: dose 5-10 mg/kg
[14] = AUC (0 to t) in Sprague-Dawley rat at 10 mg/kg, ip measured upto 24 hrs by LC-MS analysis; assay type: ADME, organism-based; settings: in vivo
[15] = Tmax in Sprague-Dawley rat at 10 mg/kg, iv measured upto 24 hrs by LC-MS analysis; assay type: ADME, organism-based; settings: in vivo
[16] = AUC (0 to infinity) in Sprague-Dawley rat at 10 mg/kg, iv measured upto 24 hrs by LC-MS analysis; assay type: ADME, organism-based; settings: in vivo
[17] = Cmax in Sprague-Dawley rat at 10 mg/kg, iv measured upto 24 hrs by LC-MS analysis; assay type: ADME, organism-based; settings: in vivo
[18] = AUC (0 to infinity) in Sprague-Dawley rat at 10 mg/kg, ip measured upto 24 hrs by LC-MS analysis; assay type: ADME, organism-based; settings: in vivo
[19] = AUC (0 to t) in Sprague-Dawley rat at 10 mg/kg, iv measured upto 24 hrs by LC-MS analysis; assay type: ADME, organism-based; settings: in vivo
[20] = Acute toxicity in C57BL/6 mouse assessed as change in body weight at 50 mg/kg, iv measured for 14 days; assay type: organism-based; settings: in vivo, 336 h, time 14 day
[21] = Drug metabolism in rat plasma assessed as 5-(1-oxodithiolan-3-yl)pentyl 4-(5-isoquinolylsulfonyl)-1,4-diazepane-1-carboxylate metabolite formation at 10 mg/kg, iv; assay type: ADME, organism-based; settings: in vivo
[22] = Drug metabolism in rat plasma assessed as 5-(1,2-dioxodithiolan-3-yl)pentyl 4-(5-isoquinolylsulfonyl)-1,4-diazepane-1-carboxylate metabolite formation at 10 mg/kg, iv; assay type: ADME, organism-based; settings: in vivo
[23] = Drug metabolism in rat plasma assessed as 5-(1,1-dioxodithiolan-3-yl)pentyl 4-(5-isoquinolylsulfonyl)-1,4-diazepane-1-carboxylate metabolite formation at 10 mg/kg, iv; assay type: ADME, organism-based; settings: in vivo

SMILES	inhibition (BV-2 [1])	CC50 [2] [µM]	Activity [3] [%]	inhibition (BV-2 [4])	further results
COc1cc(/C=C/C(=O)N2CCCN(S(=O)(=O)c3cccc4cnccc34)CC2)ccc1OCCCO[N+](=O)[O-]	6.42%	> 100	19.1	30.9%	–
CC1(C)C=Cc2cc(C(=O)N3CCCN(S(=O)(=O)c4cccc5cnccc45)CC3)ccc2O1	inactive	> 100	48.7	31.5%	–
O=S(=O)(c1cccc2cnccc12)N1CCCNCC1 [FASUDIL]	82.6%	–	99	30.1%	–
COc1cc(/C=C/C(=O)N2CCCN(S(=O)(=O)c3cccc4c(O)nccc34)CC2)ccc1OC(C)=O	25.9%	> 20	48.7	22.6%	–
O=C(CCCCC1CCSS1)N1CCN(S(=O)(=O)c2cccc3cnccc23)CC1 (stereo unspecified)	inactive	> 100	51.2	9.02%	–
COc1cc(/C=C/C(=O)OCCCCCC2CCSS2)ccc1OC(C)=O (stereo unspecified)	inactive	> 100	26.1	inactive	–
CC1(C)C=Cc2cc(/C=C/C(=O)N3CCCN(S(=O)(=O)c4cccc5cnccc45)CC3)ccc2O1	inactive	64.4	33.8	38.5%	–
COc1cc(/C=C/C(=O)N2CCCN(S(=O)(=O)c3cccc4cnccc34)CC2)cc(OC)c1OC(C)=O	35%	> 100	22.7	45.9%	–
COc1cc(/C=C/C(=O)N2CCCN(S(=O)(=O)c3cccc4cnccc34)CC2)ccc1OCCO[N+](=O)[O-]	2.78%	> 100	23.9	45.8%	–
O=C(CCCCC1CCSS1)N1CCN(C(c2ccccc2)c2ccccc2)CC1 (stereo unspecified)	49.6%	63	50.5	41%	–
CC1(C)C=Cc2cc(/C=C/C(=O)N3CCN(S(=O)(=O)c4cccc5cnccc45)CC3)ccc2O1	inactive	> 100	25.4	39.2%	–
O=S(=O)(c1cccc2cnccc12)N1CCN(C(c2ccc(F)cc2)c2ccc(F)cc2)CC1	inactive	> 20	23.4	inactive	–
O=C(CCCCC1CCSS1)N1CCCN(S(=O)(=O)c2cccc3c(O)nccc23)CC1 (stereo unspecified)	inactive	> 100	24.4	inactive	–
O=C(CCCCC1CCSS1)N1CCN(C(c2ccc(F)cc2)c2ccc(F)cc2)CC1 (stereo unspecified)	53.8%	> 100	92	70.7%	Tmax [5]: 4.98 min; CL/F [6]: 102 mL/min/kg; Cmax [7]: 9950 ng/mL; CLz/F [8]: 48.3 mL/min/kg; bioavailability [9]: 48.5%; Activity [10]: Non-toxic; Activity [11]: Non-toxic; Vd/F [12]: 6.1 L/kg; Vz/F [13]: 0.7 L/kg; Activity (Mus musculus): Active; AUC(0-t) at 24 h [14]: 1630 ng·h/mL; Tmax [15]: 4.98 min; AUC(0-inf) [16]: 3360 ng·h/mL; Cmax [17]: 20000 ng/mL; AUC(0-inf) [18]: 1660 ng·h/mL; AUC(0-t) at 24 h [19]: 3350 ng·h/mL; Activity [20]: Non-toxic
O=C(OCCCCCC1CCSS1)N1CCCN(S(=O)(=O)c2cccc3cnccc23)CC1 (stereo unspecified)	86.7%	> 100	91.4	53.9%	CLz/F [8]: 93.3 mL/min/kg; Drug metabolism [21]: metabolite_detected; Drug metabolism [22]: metabolite_detected; Activity [10]: Non-toxic; Activity [11]: Non-toxic; Vz/F [13]: 1.3 L/kg; Tmax [15]: 12 min; AUC(0-inf) [16]: 1950 ng·h/mL; Cmax [17]: 12200 ng/mL; Drug metabolism [23]: metabolite_detected; AUC(0-t) at 24 h [19]: 1940 ng·h/mL; Activity [20]: Non-toxic
COc1cc(/C=C/C(=O)N2CCCN(S(=O)(=O)c3cccc4cnccc34)CC2)ccc1O	inactive	> 100	93	0.08%	–
O=S(=O)(c1cccc2cnccc12)N1CCCN(C(c2ccc(F)cc2)c2ccc(F)cc2)CC1	inactive	62	22.7	inactive	–
COc1cc(/C=C/C(=O)N2CCCN(S(=O)(=O)c3cccc4cnccc34)CC2)ccc1OCCCCCO[N+](=O)[O-]	48.5%	> 100	25.3	34.9%	–
COc1cc(/C=C/C(=O)N2CCCN(S(=O)(=O)c3cccc4cnccc34)CC2)ccc1OC(C)=O	inactive	> 100	28.7	inactive	–
O=S(=O)(c1cccc2cnccc12)N1CCN(C(c2ccccc2)c2ccccc2)CC1	inactive	> 20	26.5	25.8%	–
CC(=O)Oc1ccc(/C=C/C(=O)N2CCCN(S(=O)(=O)c3cccc4cnccc34)CC2)cc1	26.3%	> 100	29.2	49.5%	–
COc1cc(/C=C/C(=O)N2CCCN(S(=O)(=O)c3cccc4cnccc34)CC2)ccc1OCCCCCCO[N+](=O)[O-]	56.1%	> 100	24.3	53.8%	–
CC(=O)Oc1ccccc1C(=O)OCCCCCC1CCSS1 (stereo unspecified)	27.8%	9.19	28.5	51.3%	–
O=S(=O)(c1cccc2cnccc12)N1CCCN(C(c2ccccc2)c2ccccc2)CC1	inactive	> 100	22.4	inactive	–
COc1cc(/C=C/C(=O)N2CCCN(S(=O)(=O)c3cccc4cnccc34)CC2)cc(OC)c1O	0.07%	> 100	90.9	34.5%	–
CC(=O)Oc1ccc(/C=C/C(=O)N2CCCN(S(=O)(=O)c3cccc4cnccc34)CC2)cc1OC(C)=O	22.6%	44.2	82.4	17.8%	–
COc1cc(/C=C/C(=O)N2CCCN(S(=O)(=O)c3cccc4cnccc34)CC2)ccc1OCCCCO[N+](=O)[O-]	36.3%	> 100	20.7	57.5%	–
